Data: publication PMC6251916, “CKD-506, a novel HDAC6-selective inhibitor, improves renal outcomes and survival in a mouse model of systemic lupus erythematosus” (Scientific Reports, 2018)

Columns and labels:
NZB/W F1 female mice [1] = assay: Murine SLE model: serum chemistry and necropsy; settings: for ALP / ALT / AST / Albumin / CPK / Ca / Total bilirubin / Total protein: serum at autopsy, mean ± SD
Description: Control mice received 150 μL of vehicle (Ethanol: Kolliphor® EL: saline = 1:1:8) and were subjected to the same schedule. Survival rate and incidence of severe proteinuria (percent individual mice with urine protein ≥300 mg/dL) were calculated. Survival had been monitored until 42 weeks of age.

[2] = test system: acetylation of histone H4; assay: Analysis of protein acetylation in human PBMC (western blot); type: cell-based; settings: 4 hr
Description: (§1) Human peripheral blood mononuclear cells (PBMC) (IRB No. CKD-IRB-012) were seeded (1.0 × 10^6 cells/well) and cultured for 24 hr on 12-well plate before treatment of CKD-506 or LBH-589. The chemicals were treated for 4 hr. After harvesting cells, total protein extracts were prepared. The protein extracts were resolved in pre-made SDS-PAGE (NuPAGE® Bis-Tris Precast Gels, Invitrogen). Proteins were transferred onto polyvinylidene difluoride (PVDF) membrane and probed with the following antibodies; anti-acetyl α tubulin (1:5000, #5335, Cell Signaling Technology), α tubulin (1:2000, #2144, Cell Signaling Technology), anti-acetyl histone H4(1:5000, #8647, Cell Signaling Technology), anti-histone H4(1:1000, #2935S, Cell Signaling Technology), and anti-beta-actin (1:5000, #A5441, Sigma). The horseradish peroxidase-conjugated anti-rabbit IgG (1:5000, #7074S, Cell Signaling Technology) and anti-mouse IgG (1:5000, #7076 S, Cell Signaling Technology) were used as secondary antibodies. Acetylated proteins were visualized by chemiluminescence (RPN2235, GE healthcare) and detected by the Gel documentation system (ChemiDoc™, BioRad).

acetylation of α tubulin = assay: as above; type: cell-based
Description: as §1

[3] = test system: THP1-Blue ISG human monocyte cell line; assay: cGAMP induced IFN promoter activity reporter assay (IRF-inducible SEAP); type: cell-based; settings: 3 μM; 10 μM cGAMP; 24hr; significant
Text: Supplementary Figure 2. A representative gating scheme of the T cell subset and CD138+ […]
To analyze T helper subsets, splenocytes were stained with antibodies to CD4 and CD25 (FITC-conjugated anti-mouse CD4 and APC-conjugated anti-mouse CD25, BD Biosciences).
Cells were fixed and permeabilized prior to staining with Foxp3 (Tube 007), ROR-γt (Tube 008), T-bet (Tube 009), and GATA-3 (Tube 010) antibodies (PE-, BD Biosciences).
The splenocytes were stained with PerCP-Cy5.5-conjugated anti-mouse CD3e (PerCP-cy5.5-CD3e, eBioscience, San Diego, CA, USA), fluorescein isothiocyanate (FITC)-conjugated anti-mouse CD4 (FITC-CD4, BD Biosciences, San Jose, CA, USA), PE-cyanine7-conjugated anti-mouse CD8a (eBioscience), and APC-conjugated anti-mouse CD25 (Tube 011).
Unstained control (no antibody, Tube 001), FITC control (FITC-conjugated anti-mouse CD4 only, Tube 002), APC control (APC-conjugated anti-mouse CD25 only, Tube 003), PE control (PE-conjugated anti-mouse CD138 (BD Bioscience) only, Tube 004), and PerCP-Cy5.5 CD3 control (PerCP-Cy5.5-conjugated anti-mouse CD3e only, Tube 005) were also used for gating. cGAMP induced IFN promoter activ ity
Supplementary Figure 3. […]
The SEAP activity in the culture supernatant was measured with Flexstation (Molecular Devices, USA) after incubation with Quanti-Blue solution (InvivoGen, USA) for 15 min. […]

NZB/W F1 female mice [4] = assay: Murine SLE model: survival, severe proteinuria, UP/C; type: in vivo, mouse; settings: for Survival rate at the end of the study: 42-weeks of age; for incidence of severe proteinuria (urine protein >300 mg/dl): 42 weeks of age
Description: Survival had been monitored until 42 weeks of age.
During the experiments, urine protein levels had been measured every 2 weeks. Fresh urine was collected by performing abdominal massages. Urine protein was measured with the Coomassie Brilliant Blue method as described in our previous study. Urine creatinine was measured using a DRI-CHEM 3000 Colorimetric analyzer (Fujifilm, Tokyo, Japan) with the urine diluted in deionized water (1:100 dilution).

In the case of CKD-506, the “appearance of the spleen, kidneys, liver, lungs, or heart (gross or microscopic examination at necropsy)” value (NZB/W F1 female mice [1]; end of experiment) is reported as “did not result in significant changes”, the “serum ALT relative to reference range” value (NZB/W F1 female mice [1]; group CKD50, significantly higher than the other groups) is reported as “within the reference range” and the ALP (NZB/W F1 female mice [1]; group D: CKD-506 10 mg/kg/day) is reported as 187.44 ± 62.24 U/l. For the same substance, the ALT (NZB/W F1 female mice [1]; group D: CKD-506 10 mg/kg/day) was 18.10 ± 5.43 U/l, the AST (NZB/W F1 female mice [1]; group D: CKD-506 10 mg/kg/day) was 44.20 ± 10.09 U/l and the Albumin (NZB/W F1 female mice [1]; group D: CKD-506 10 mg/kg/day) was 1.91 ± 0.43 g/dL. For the same substance, the CPK (NZB/W F1 female mice [1]; group D: CKD-506 10 mg/kg/day) was 86.70 ± 56.89 U/l, the Ca (NZB/W F1 female mice [1]; group D: CKD-506 10 mg/kg/day) was 10.08 ± 1.26 mg/dL and the Total bilirubin (NZB/W F1 female mice [1]; group D: CKD-506 10 mg/kg/day) was 0.22 ± 0.09 mg/dL. It also gave a Total protein (NZB/W F1 female mice [1]; group D: CKD-506 10 mg/kg/day) of 4.74 ± 0.63 g/dL, an ALP (NZB/W F1 female mice [1]; group E: CKD-506 30 mg/kg/day) of 155.92 ± 19.94 U/l and an ALT (NZB/W F1 female mice [1]; group E: CKD-506 30 mg/kg/day) of 20.79 ± 2.91 U/l. For the same substance, the AST (NZB/W F1 female mice [1]; group E: CKD-506 30 mg/kg/day) was 55.21 ± 19.34 U/l, the Albumin (NZB/W F1 female mice [1]; group E: CKD-506 30 mg/kg/day) was 2.19 ± 0.43 g/dL and the CPK (NZB/W F1 female mice [1]; group E: CKD-506 30 mg/kg/day) was 84.71 ± 31.40 U/l. The Ca (NZB/W F1 female mice [1]; group E: CKD-506 30 mg/kg/day) was 9.65 ± 0.69 mg/dL, the Total bilirubin (NZB/W F1 female mice [1]; group E: CKD-506 30 mg/kg/day) was 0.26 ± 0.12 mg/dL and the Total protein (NZB/W F1 female mice [1]; group E: CKD-506 30 mg/kg/day) was 5.21 ± 0.71 g/dL. It also gave an ALP (NZB/W F1 female mice [1]; group F: 50 mg/kg/day) of 153.08 ± 17.25 U/l, an ALT (NZB/W F1 female mice [1]; group F: 50 mg/kg/day) of 29.07 ± 12.21 U/l and an AST (NZB/W F1 female mice [1]; group F: 50 mg/kg/day) of 59.00 ± 56.14 U/l. It also gave an Albumin (NZB/W F1 female mice [1]; group F: 50 mg/kg/day) of 2.26 ± 0.35 g/dL, a CPK (NZB/W F1 female mice [1]; group F: 50 mg/kg/day) of 125.86 ± 177.18 U/l and a Ca (NZB/W F1 female mice [1]; group F: 50 mg/kg/day) of 9.43 ± 0.59 mg/dL. For the same substance, the Total bilirubin (NZB/W F1 female mice [1]; group F: 50 mg/kg/day) was 0.28 ± 0.14 mg/dL, the Total protein (NZB/W F1 female mice [1]; group F: 50 mg/kg/day) was 5.35 ± 0.60 g/dL and the “effect on acetylation of histone H4” value [2] was “without affecting”. For the same substance, the “acetylation of α tubulin, % of maximum acetylation” value (acetylation of α tubulin; at 100 nM, human PBMC) was “about 85%”, the IC90 (acetylation of α tubulin; read-out: IC90 for the induction of α tubulin acetylation) was about 100 nM and the “cGAMP induced IFN promoter activity” value [3] was “repressed”. The “Survival rate at the end of the study” value (NZB/W F1 female mice [4]; group CKD10: 10 mg/kg/day i.p.) was 73.3%, the “incidence of severe proteinuria (urine protein >300 mg/dl)” value (“incidence of severe proteinuria” for short) (NZB/W F1 female mice [4]; group CKD10: 10 mg/kg/day i.p.) was 13.3% and the “Survival rate at the end of the study” value (NZB/W F1 female mice [4]; group CKD30: 30 mg/kg/day i.p.) was 93.3%. The “incidence of severe proteinuria” value (NZB/W F1 female mice [4]; group CKD30: 30 mg/kg/day i.p.) was 6.7%, the “Survival rate at the end of the study” value (NZB/W F1 female mice [4]; group CKD50: 50 mg/kg/day i.p.) was 93.3% and the “incidence of severe proteinuria” value (NZB/W F1 female mice [4]; group CKD50: 50 mg/kg/day i.p.) was 0%. For the same substance, the “urine protein/urine creatinine (UP/C)” value (NZB/W F1 female mice [4]; group CKD50, 42 weeks, not significantly different from other groups) was “lowest UP/C mean value”.
